In patent US20240116985A1, “STAPLED PEPTIDES AND METHODS THEREOF” (priority 2020, published 2024) one finds IC50 data, which are given here for 10 molecules.

Read-outs that look alike come from different tables or passages of the source.

Test [1] addresses T1, full-length beta-Catenin (Uniprot ID P35222) (Homo sapiens, UniProt P35222).
T1 construct: 10 nM full-length beta-Catenin (Uniprot ID P35222)
T1 sequence (P35222 1-781): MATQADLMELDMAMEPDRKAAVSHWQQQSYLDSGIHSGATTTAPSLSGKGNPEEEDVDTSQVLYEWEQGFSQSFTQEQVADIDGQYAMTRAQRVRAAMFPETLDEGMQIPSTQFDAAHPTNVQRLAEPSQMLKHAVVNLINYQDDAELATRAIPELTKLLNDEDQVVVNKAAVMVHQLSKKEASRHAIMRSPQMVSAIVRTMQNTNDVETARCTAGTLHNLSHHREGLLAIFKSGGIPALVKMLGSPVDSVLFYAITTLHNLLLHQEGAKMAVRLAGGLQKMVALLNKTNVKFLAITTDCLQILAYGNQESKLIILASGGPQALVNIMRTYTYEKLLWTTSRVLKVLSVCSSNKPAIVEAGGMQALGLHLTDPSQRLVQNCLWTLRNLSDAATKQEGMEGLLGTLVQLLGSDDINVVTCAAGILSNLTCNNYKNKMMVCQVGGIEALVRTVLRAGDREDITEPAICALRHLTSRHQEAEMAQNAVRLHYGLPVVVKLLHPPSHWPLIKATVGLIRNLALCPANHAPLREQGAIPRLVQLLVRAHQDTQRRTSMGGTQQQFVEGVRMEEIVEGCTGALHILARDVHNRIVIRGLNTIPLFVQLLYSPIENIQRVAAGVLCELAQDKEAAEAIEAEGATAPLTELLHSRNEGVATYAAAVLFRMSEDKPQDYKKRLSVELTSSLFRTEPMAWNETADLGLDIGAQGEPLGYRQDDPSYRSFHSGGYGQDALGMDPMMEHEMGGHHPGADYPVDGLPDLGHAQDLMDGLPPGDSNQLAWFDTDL
As to the kind of experiment: Fluorescence polarization IC50 (beta-catenin / 5FAM-TCF4 10-53 competition). The test is classed as binding. To be noted: fluorescence polarization; read-out: beta-Catenin FP IC50. Background: In fluorescence polarisation assays a small probe gives low polarisation when free and higher when bound to something large.

Test [2] concerns the target T2, beta-catenin/TCF4 engagement (Homo sapiens, UniProt P35222).
T2 construct: expressed in transfected cells; host or cells: HEK293
T2 sequence (P35222 1-781): T1 sequence (P35222 1-781)
Kind of test: Nano-BRET target engagement assay (B-cat-Halo & TCF4-Luc in HEK293 cells). The test is classed as cell-based. To be noted: read-out: NanoBRET Abs IC50. For orientation: BRET reads energy transfer from a luciferase to a nearby fluorophore.

Test [3] concerns TCF/LEF luciferase Reporter in DLD1 cells. Kind of test: TCF reporter assay (DLD1 TCF/LEF luciferase reporter, Bright-Glo). The test is classed as cell-based. To be noted: read-out: DLD1 4% Abs IC50. A digest of the protocol:
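Readouts: Bright-Glo luciferase for reporter signal and CellTiter-Glo for cell viability, with absolute IC50 derived. The reporter clone came from lentiviral TCF/LEF-luciferase transduction of DLD1 cells, seeded 5000 cells/well in RPMI with 4% FBS and exposed overnight to serially diluted compounds.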
(In a reporter assay the amount or activity of a reporter protein is the signal.)

Test [4] concerns COLO320DM cells. The test is classed as cell-based. To be noted: COLO320DM cells, read-out: COLO320DM Proliferation Abs IC50. An outline of the steps: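 COLO320DM cells at 250 cells/well in RPMI-1640 + 4% HI FBS, dosed after 18–22 h with a 7-point […] 1/2 dilution series from 20 uM down to 313 nM.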
The mark [5] stands for this setting: DLD1 reporter, 4%, absolute IC50.

Turning to `CC(=O)N1CCC[C@]12CC=CCCCC1(CCCC=CCCCOC(=O)N3CC[C@@](C(=O)N[C@@H](Cc4ccsc4)C(=O)N[C@@H](Cc4csc5ccccc45)C(=O)N[C@@H](CCC(N)=O)C(N)=O)(C3)NC(=O)[C@H](CC(C)C)NC(=O)[C@H](Cc3ccccc3)NC(=O)[C@H](C)NC(=O)[C@H](C)NC(=O)[C@H](Cc3cccc(C(=O)O)c3)NC(=O)[C@H](CC(=O)O)NC1=O)NC(=O)[C@H](CC(C)(C)C)NC(=O)[C@H](CC(=O)O)NC2=O` (stereo partly drawn) [I-1462, Ac-PL3-Asp-Npg-B5-Asp-3COOHF-Ala-Ala-Phe-Leu-PyrS2-3Thi-BztA-Gln-NH2], the IC50 in test [1] is 8 nM; in test [2] (absolute IC50), 2300 nM; in test [3] (setting [5]) it was 2700 nM; in test [4] (absolute IC50) it was 8400 nM.
Take `CC(=O)N1CCC[C@]12CC=CCCCC1(CCCC=CCCCOC(=O)N3CC[C@@](C(=O)N[C@@H](Cc4ccccc4Cl)C(=O)N[C@@H](Cc4csc5ccccc45)C(=O)N[C@@H](CC(N)=O)C(=O)N[C@@H](C)C(=O)N[C@@H](C)C(=O)N[C@H](C)C(N)=O)(C3)NC(=O)[C@H](CC(C)C)NC(=O)[C@H](Cc3ccccc3)NC(=O)[C@H](C)NC(=O)[C@H](C)NC(=O)[C@H](Cc3cccc(C(=O)O)c3)NC(=O)[C@H](CC(=O)O)NC1=O)NC(=O)[C@H](CC(C)(C)C)NC(=O)[C@H](CC(=O)O)NC2=O` (stereo partly drawn) [I-2041, Ac-PL3-Asp-Npg-B5-Asp-3COOHF-Ala-Ala-Phe-Leu-PyrS2-2C1F-BztA-Asn-Ala-Ala-dAla-NH2]: the IC50 in test [1] is 16 nM; in test [2], 2300 nM; in test [3] (DLD1 4%), 1900 nM; in test [4] it was more than 20000 nM.
On to `CC(=O)N1CCC[C@]12CC=CCCCC1(CCCC=CCCCOC(=O)N3CC[C@@](C(=O)N[C@@H](Cc4ccsc4)C(=O)N[C@@H](Cc4csc5ccccc45)C(=O)N[C@@H](CC(N)=O)C(N)=O)(C3)NC(=O)[C@H](CC(C)C)NC(=O)[C@H](Cc3ccccc3)NC(=O)[C@H](C)NC(=O)[C@H](C)NC(=O)[C@H](Cc3cccc(C(=O)O)c3)NC(=O)[C@H](CC(=O)O)NC1=O)NC(=O)[C@H](CC(C)(C)C)NC(=O)[C@H](CC(=O)O)NC2=O` (stereo partly drawn) [I-2043, Ac-PL3-Asp-Npg-B5-Asp-3COOHF-Ala-Ala-Phe-Leu-PyrS2-3Thi-BztA-Asn-NH2], for which the IC50 in test [1] came to 8 nM; in test [2], 2800 nM; in test [3] (DLD1 4%), 1000 nM; in test [4], 15200 nM.
For `CC(=O)N1CCN(C(=O)CC[C@@H]2NC(=O)[C@H](Cc3cccc(C(=O)O)c3)NC(=O)[C@H](CC(=O)O)NC(=O)C3(CCCC=CCCCOC(=O)N4CC[C@@](C(=O)N[C@@H](Cc5ccccc5C(F)(F)F)C(=O)N[C@@H](Cc5csc6ccccc56)C(=O)N[C@@H](C)C(N)=O)(C4)NC(=O)[C@H](CC(C)C)NC(=O)[C@H](Cc4ccccc4)NC(=O)[C@H](C)NC2=O)CCCC=CC[C@]2(CCCN2C(C)=O)C(=O)N[C@@H](CC(=O)O)C(=O)N[C@@H](CC(C)(C)C)C(=O)N3)CC1` (stereo partly drawn) [I-2319, Ac-PL3-Asp-Npg-B5-Asp-3COOHF-[AcPpz]GlnR-Ala-Phe-Leu-PyrS2-2F3MeF-BztA-Ala-NH2], the IC50 in test [1] was 5 nM; in test [2] (absolute IC50) it was 1000 nM; in test [3] (setting [5]) it was 1700 nM; in test [4] (absolute IC50), more than 20000 nM.
As for `CC(=O)N1CCC[C@]12CC=CCCCC1(CCCC=CCCCOC(=O)N3CC[C@@](C(=O)N[C@@H](Cc4ccccc4C(F)(F)F)C(=O)N[C@@H](Cc4csc5ccccc45)C(=O)N[C@@H](CO)C(N)=O)(C3)NC(=O)[C@H](CC(C)C)NC(=O)[C@H](Cc3ccccc3)NC(=O)[C@H](C)NC(=O)[C@H](C)NC(=O)[C@H](Cn3cc(CC(C)(C)C(=O)O)nn3)NC(=O)[C@H](CC(=O)O)NC1=O)NC(=O)[C@H](CC(C)(C)C)NC(=O)[C@H](CC(=O)O)NC2=O` (stereo partly drawn) [I-2372, Ac-PL3-Asp-Npg-B5-Asp-[CH2CMe2CO2H]TriAzDap-Ala-Ala-Phe-Leu-PyrS2-2F3MeF-BztA-Ser-NH2], the IC50 in test [1] stood at 5 nM; in test [2] (absolute IC50), 2600 nM; in test [3] (setting [5]), 2100 nM; in test [4] (absolute IC50), 7000 nM.
With `CC(=O)N1CCC[C@]12CC=CCCCC1(CCCC=CCCCOC(=O)N3CC[C@@](C(=O)N[C@@H](Cc4ccccc4C(F)(F)F)C(=O)N[C@@H](Cc4csc5ccccc45)C(=O)N[C@@H](CCC(N)=O)C(=O)N[C@@H](CC(C)C)C(=O)N[C@@H](Cc4ccccc4)C(N)=O)(C3)NC(=O)[C@H](CC(C)C)NC(=O)[C@H](Cc3ccccc3)NC(=O)[C@H](C)NC(=O)[C@H](C)NC(=O)[C@H](Cc3cccc(C(=O)O)c3)NC(=O)[C@H](CC(=O)O)NC1=O)NC(=O)[C@H](CC(C)(C)C)NC(=O)[C@H](CC(=O)O)NC2=O` (stereo partly drawn) [I-2381, Ac-PL3-Asp-Npg-B5-Asp-3COOHF-Ala-Ala-Phe-Leu-PyrS2-2F3MeF-BztA-Gln-Leu-Phe-NH2], the IC50 in test [1] is 1470 nM; in test [2] (absolute IC50), 2100 nM; in test [3] (setting [5]) it was 1100 nM; in test [4] (absolute IC50), more than 20000 nM.
On to `CC(=O)N1CCC[C@]12CC=CCCCC1(CCCC=CCCCOC(=O)N3CC[C@@](C(=O)N[C@@H](Cc4ccccc4C(F)(F)F)C(=O)N[C@@H](Cc4csc5ccccc45)C(=O)N[C@@H](CCC(N)=O)C(=O)N[C@@H](CC(C)C)C(=O)N[C@@H](Cc4c[nH]c5ccccc45)C(N)=O)(C3)NC(=O)[C@H](CC(C)C)NC(=O)[C@H](Cc3ccccc3)NC(=O)[C@H](C)NC(=O)[C@H](C)NC(=O)[C@H](Cc3cccc(C(=O)O)c3)NC(=O)[C@H](CC(=O)O)NC1=O)NC(=O)[C@H](CC(C)(C)C)NC(=O)[C@H](CC(=O)O)NC2=O` (stereo partly drawn) [I-2394, Ac-PL3-Asp-Npg-B5-Asp-3COOHF-Ala-Ala-Phe-Leu-PyrS2-2F3MeF-BztA-Gln-Leu-Trp-NH2], for which the IC50 in test [1] is 535 nM; in test [2] (absolute IC50), 2200 nM; in test [3] (setting [5]), 700 nM; in test [4] (absolute IC50) it was more than 20000 nM.
The like results for `CC[C@@H]1NC(=O)[C@H](Cc2ccccc2)NC(=O)[C@H](C)NC(=O)C(C)(C)NC(=O)[C@H](Cc2cccc(C(=O)O)c2)NC(=O)[C@H](CC(=O)O)NC(=O)C2(CCCC=CCCCOC(=O)N3CC[C@@](C(=O)N[C@@H](Cc4ccccc4C(F)(F)F)C(=O)N[C@@H](Cc4csc5ccccc45)C(=O)N[C@@H](CCC(=O)N(C)C)C(=O)N[C@@H](C)C(N)=O)(C3)NC1=O)CCCC=CC[C@]1(CCCN1C(C)=O)C(=O)N[C@@H](CC(=O)O)C(=O)N[C@@H](CC(C)(C)C)C(=O)N2` (stereo partly drawn) [I-2468, Ac-PL3-Asp-Npg-B5-Asp-3COOHF-Aib-Ala-Phe-Abu-PyrS2-2F3MeF-BztA-Me2Gln-Ala-NH2] were, in that order, 38 nM, 6200 nM, 6400 nM and more than 20000 nM.
As to `CC[C@@H]1NC(=O)[C@H](Cc2ccccc2)NC(=O)[C@H](C)NC(=O)C(C)(C)NC(=O)[C@H](Cc2cccc(C(=O)O)c2)NC(=O)[C@H](CC(=O)O)NC(=O)C2(CCCC=CCCCOC(=O)N3CC[C@@](C(=O)N[C@@H](Cc4ccsc4)C(=O)N[C@@H](Cc4csc5ccccc45)C(=O)N[C@@H](CCC(=O)N(C)C)C(=O)N[C@@H](C)C(N)=O)(C3)NC1=O)CCCC=CC[C@]1(CCCN1C(C)=O)C(=O)N[C@@H](CC(=O)O)C(=O)N[C@@H](CC(C)(C)C)C(=O)N2` (stereo partly drawn) [I-2469, Ac-PL3-Asp-Npg-B5-Asp-3COOHF-Aib-Ala-Phe-Abu-PyrS2-3Thi-BztA-Me2Gln-Ala-NH2], the IC50 was 7 nM in test [1], 2300 nM in test [2] (absolute IC50), 600 nM in test [3] (setting [5]) and 5600 nM in test [4] (absolute IC50).
`CC(=O)NCCCC[C@@H]1NC(=O)[C@H](Cc2ccccc2)NC(=O)[C@H](C)NC(=O)C(C)(C)NC(=O)[C@H](Cc2cccc(C(=O)O)c2)NC(=O)[C@H](CC(=O)O)NC(=O)C2(CCCC=CCCCOC(=O)N3CC[C@@](C(=O)N[C@@H](Cc4ccsc4)C(=O)N[C@@H](Cc4csc5ccccc45)C(=O)N[C@@H](C)C(=O)N[C@@H](C)C(N)=O)(C3)NC1=O)CCCC=CC[C@]1(CCCN1C(C)=O)C(=O)N[C@@H](CC(=O)O)C(=O)N[C@@H](CC(C)(C)C)C(=O)N2` (stereo partly drawn) [I-2578, Ac-PL3-Asp-Npg-B5-Asp-3COOHF-Aib-Ala-Phe-AcLys-PyrS2-3Thi-BztA-Ala-Ala-NH2]: the IC50 amounted to 5 nM in test [1]; 5500 nM in test [2]; 4100 nM in test [3] (DLD1 reporter, 4%); 7700 nM in test [4].
